What was measured:
[1] = pH and solubilizer effect on solubility; type: physicochemical; conditions: potassium salt; for solubility at 24 h: 25 °C, thermodynamic from solid
Method: Solubility of compound 2 (potassium salt) was evaluated at various pH levels.

[2] = Pharmacokinetic evaluation in SD rats; type: in vivo, rat; conditions: 2.0 mg/kg intragastric
Method: Drug Preparation: a certain amount of the drug was taken and added into a 2% Klucel LF+0.1% Tween 80 aqueous solution, to prepare a clear solution or a uniform suspension.
Dosage: SD rats were fasted overnight and given the drug by intragastric infusion at an administrated dose of 2 mg/kg and an administrated volume of 10 mL/kg each.
Operation: rats were dosed by intragastric infusion with the compounds. […] The heparinized sample tubes were then stored at −20° C., and the rats were allowed to eat food 2 h after the dosage.
Determination of contents of the compounds to be tested in the plasma of rats after intragastric infusion of the drugs at different concentrations: the plasma samples were thawed at room temperature, 50 μL each was taken and added into 130 μL of an internal standard working solution (1000 ng/mL, acetonitrile, tolbutamide), and the mixture was whirled for about 1 min and then centrifugated at 4° C. and 13000 rpm for 10 min. 50 μL of the supernatant was taken and mixed with 100 μL of 50% acetonitrile water, and then introduced for LC/MS/MS analysis.

mouse NASH model = test: Mouse NASH model (high fat diet + CCl4), Compound 2; type: in vivo
Method: (§1) C57BL/6J mice were fed a high fat diet for 10 weeks to induce obesity (>38 g BW). Obese mice were injected intraperitoneally (i.p.) twice a week for four weeks with 0.5 μl/g 25% CCl4 (formulated in olive oil) to induce fibrosis, and one group of normal BW mice were injected i.p. twice a week for four weeks with olive oil to serve as a healthy control. During the same dosing period, obese mice were fed orally once a day for 28 days with vehicle or varying doses of Compound 2. On CCl4 dosing days, CCl4 was administered at 4 hours post compound or vehicle dosing. On day 27, all animals were fasted for about 16 hours before terminal euthanasia. On day 28, all animals were sacrificed and various biological parameters were analyzed. Total body, liver, heart and brain weight were measured and changes in liver and heart weight were normalized using brain weight.
(§2) Liver samples were collected for whole transcriptome analysis by RNA sequencing (RNAseq). RNAseq library (n=5 per group) preparation and sequencing was performed using Illumina standard protocols. Alignment of sequencing reads was performed using STAR aligner software and read counts were estimated using RSEM. Differentially expressed genes (compared to vehicle-treated NASH control mice) were determined using EdgeR software. Gene ontology analysis was performed using Advaita software with fold-change and adjusted p-value cutoffs of >1.5 and <0.05, respectively. Gene ontologies were derived from the Gene Ontology Consortium database (2019 Apr. 26) (Ashburner et al., Gene ontology: Tool for the unification of biology. Nature Genetics 25(1): 25-9 (2000); Gene Ontology Consortium, Creating the Gene Ontology Resource: Design and Implementation. Genome Research 11: 1425-1433 (2001)).

[3] = as above; type: in vivo; conditions: C57BL/6J, in vivo, oral; mouse model of NASH; read-out: threshold AUC achieving significant histological improvement
Method: as §1, §2

BCRP = target: T1, BCRP (Homo sapiens, UniProt Q9UNQ0)
T1 sequence (Q9UNQ0 1-655): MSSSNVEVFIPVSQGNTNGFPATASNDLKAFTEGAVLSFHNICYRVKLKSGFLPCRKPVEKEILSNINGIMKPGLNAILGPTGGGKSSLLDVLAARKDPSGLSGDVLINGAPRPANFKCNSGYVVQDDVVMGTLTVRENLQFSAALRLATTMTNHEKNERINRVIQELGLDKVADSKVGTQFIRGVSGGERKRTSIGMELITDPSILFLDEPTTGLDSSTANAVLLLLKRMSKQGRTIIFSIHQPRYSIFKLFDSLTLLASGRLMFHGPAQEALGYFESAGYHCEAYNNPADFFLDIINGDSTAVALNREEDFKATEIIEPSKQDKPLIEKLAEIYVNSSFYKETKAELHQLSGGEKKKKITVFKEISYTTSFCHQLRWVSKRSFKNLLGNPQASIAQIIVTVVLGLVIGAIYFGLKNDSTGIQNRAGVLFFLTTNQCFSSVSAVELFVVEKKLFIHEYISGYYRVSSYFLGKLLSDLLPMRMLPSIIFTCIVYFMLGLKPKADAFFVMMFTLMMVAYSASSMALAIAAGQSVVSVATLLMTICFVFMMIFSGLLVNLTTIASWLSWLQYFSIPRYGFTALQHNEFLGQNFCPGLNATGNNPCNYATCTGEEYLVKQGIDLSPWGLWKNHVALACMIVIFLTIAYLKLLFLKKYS

[4] = oral QD 28 days, all doses tested

SMILES: N#Cc1nn(-c2cc(Cl)c(Oc3n[nH]c(=O)c4ccccc34)c(Cl)c2)c(=O)[nH]c1=O [Compound 2, 2-(3,5-dichloro-4-((4-oxo-3,4-dihydrophthalazin-1-yl)oxy)phenyl)-3,5-dioxo-2,3,4,5-tetrahydro-1,2,4-triazine-6-carbonitrile]
- solubility at 24 h ([1]; 0.1N HCl with 2 wt % SLS, aqueous with cosolvent or surfactant or cyclodextrin, 0.1N HCl, with 2 wt % SLS): 5.7 µg/mL
- solubility at 24 h ([1]; 0.1N HCl, simulated gastric fluid, without 2 wt % SLS): < 0.03 µg/mL
- solubility at 24 h ([1]; pH 2.0 buffer with 2 wt % SLS, pH 2, aqueous with cosolvent or surfactant or cyclodextrin, pH 2.0 buffer, with 2 wt % SLS): 5.5 µg/mL
- solubility at 24 h ([1]; pH 2.0 buffer, pH 2, aqueous buffer, without 2 wt % SLS): < 0.07 µg/mL
- solubility at 24 h ([1]; pH 4.0 buffer with 2 wt % SLS, pH 4, aqueous with cosolvent or surfactant or cyclodextrin, pH 4.0 buffer, with 2 wt % SLS): 10 µg/mL
- solubility at 24 h ([1]; pH 4.0 buffer, pH 4, aqueous buffer, without 2 wt % SLS): < 0.07 µg/mL
- solubility at 24 h ([1]; pH 6.0 buffer with 2 wt % SLS, pH 6, aqueous with cosolvent or surfactant or cyclodextrin, pH 6.0 buffer, with 2 wt % SLS): 42.3 µg/mL
- solubility at 24 h ([1]; pH 6.0 buffer, pH 6, aqueous buffer, without 2 wt % SLS): 2.2 µg/mL
- solubility at 24 h ([1]; pH 8.0 buffer with 2 wt % SLS, pH 8, aqueous with cosolvent or surfactant or cyclodextrin, pH 8.0 buffer, with 2 wt % SLS): 302 µg/mL
- solubility at 24 h ([1]; pH 8.0 buffer, pH 8, aqueous buffer, without 2 wt % SLS): 10.8 µg/mL
- solubility at 24 h ([1]; pH 10.0 buffer with 2 wt % SLS, pH 10, aqueous with cosolvent or surfactant or cyclodextrin, pH 10.0 buffer, with 2 wt % SLS): 308 µg/mL
- solubility at 24 h ([1]; pH 10.0 buffer, pH 10, aqueous buffer, without 2 wt % SLS): 10.2 µg/mL
- Solubility ([1]; pH 10.0 buffer, 24 h, with 2 wt % SLS, 25° C.): 308.2 µg/mL
- Curve area [2]: 24.79 ± 3.704 µg·h/mL
- Peak blood drug concentration [2]: 2007 ± 106 ng/mL
- Time to peak [2]: 4.67 ± 1.15 h
- half-life ([2]; male, rat, plasma, po): 4.56 ± 0.42 h
- expression of genes associated with collagen extracellular matrix and hepatic stellate cell activation (mouse NASH model; liver RNAseq vs NASH control mice): reducing their expression levels
- liver inflammation (histology) (mouse NASH model; oral QD 28 days): trend in inflammation reduction
- liver/brain weight (mouse NASH model; oral QD 28 days): significantly reduced
- total body weight or heart/brain weight (mouse NASH model; oral QD 28 days): no effect
- liver fibrosis (histology) (mouse NASH model; oral QD 28 days, 3 and 10 mpk): significantly reduced
- liver steatosis (histology) (mouse NASH model; [4]): significantly reduced
- serum total cholesterol, triglycerides and ALT (mouse NASH model; [4]): significantly reduced
- AUC [3]: 3.32 µg·h/mL
- IC50 (BCRP): 9.37 µM

SMILES: Cn1cc(C(=O)O)c2ccc(N3CCC(OCc4c(-c5c(Cl)cccc5Cl)noc4C4CC4)CC3)cc21 [Compound 3]
- IC50 (BCRP): 4.39 µM
